Data: US7763624B2, “Substituted pyrazolo[3,4-d]pyrimidines as ACK-1 and LCK inhibitors” (Amgen Inc., priority 2005, dated 2010)
Like-named read-outs stand apart in the source and are kept apart here.

Key:
C8 cells = test: ACK1 Cell Based Assay (survival under low serum, Cytotox One); settings: read-out: ACK1 Cell-based IC50
Method: ACK1 Cell Based Assay The ACK1 cell based assay is designed to find inhibitors of ACK1 kinase activity which would be prime candidates for the development of anticancer drugs. […] After 20 to 24 h incubation at 37° C. and 5% CO2, cell viability is determined using the Cytotox One kit (Promega) according to the manufacturer's instructions.

LCK = molecular target: T1, LCK (Homo sapiens, UniProt P06239); test: LCK-Homogeneous Time Resolved Fluorescent (HTRF) Kinase Assay; format: biochemical
T1 construct: 15 μL of LCK KD GST (225-509) for a final volume of 40 μL; GST
T1 sequence (P06239 225-509): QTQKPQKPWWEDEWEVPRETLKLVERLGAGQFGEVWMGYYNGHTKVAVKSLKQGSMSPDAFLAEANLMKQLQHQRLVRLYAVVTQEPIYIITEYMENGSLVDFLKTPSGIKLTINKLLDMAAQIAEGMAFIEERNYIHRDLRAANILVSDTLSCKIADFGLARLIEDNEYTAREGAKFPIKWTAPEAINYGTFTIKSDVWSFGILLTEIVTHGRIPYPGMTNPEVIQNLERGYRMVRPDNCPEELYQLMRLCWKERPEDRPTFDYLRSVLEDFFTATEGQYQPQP
Method: LCK-Homogeneous Time Resolved Fluorescent (HTRF) Kinase Assay
The LCK HTRF assay begins with LCK in the presence of ATP phosphorylating the biotinylated peptide Gastrin. The reaction incubates for 90 min. To quench the assay detection reagents are added which both stop the reaction by diluting out the enzyme and chelating the metals due to the presence of EDTA. Once the detection reagents are added the assay incubates for 30 min to allow for equilibration of the detection reagents.
Buffer conditions are as follows: 50 mM HEPES pH 7.5, 50 mM NaCl, 20 mM MgCl2, 5 mM MnCl2, 2 mM DTT, 0.05% BSA.
The assay is quenched and stopped with 160 μL of a detection reagent. Detection reagents are as follows: Buffer made of 50 mM Tris, pH 7.5, 100 mM NaCl, 3 mM EDTA, 0.05% BSA, 0.1% Tween20.
The assay plate is read in either a Discovery or a RubyStar.

ACK1 = molecular target: T2, ACK1 (Homo sapiens, UniProt Q07912); test: ACK1 Enzymatic Assay (PGT/autophosphorylation ELISA); format: biochemical
T2 construct: a fusion of an N-terminal (His)6 Tag with amino acids 117 to 489 of ACK1; (His)6 (N); made in house; host or cells: baculovirus infected Hi-5 insect cells
T2 sequence (Q07912 117-489): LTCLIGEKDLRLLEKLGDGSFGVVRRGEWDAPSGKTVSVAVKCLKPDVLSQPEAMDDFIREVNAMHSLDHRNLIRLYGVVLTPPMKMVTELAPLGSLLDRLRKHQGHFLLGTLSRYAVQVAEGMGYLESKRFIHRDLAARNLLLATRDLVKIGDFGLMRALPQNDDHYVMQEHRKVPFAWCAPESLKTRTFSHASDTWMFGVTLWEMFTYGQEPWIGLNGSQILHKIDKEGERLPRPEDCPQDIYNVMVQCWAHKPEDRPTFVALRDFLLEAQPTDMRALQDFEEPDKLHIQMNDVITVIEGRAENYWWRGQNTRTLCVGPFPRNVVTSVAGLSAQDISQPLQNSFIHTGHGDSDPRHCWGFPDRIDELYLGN
Method: IC50 values of compounds of the invention may be assessed as follows. The ACK1 kinase assay utilizes a protein expressed in baculovirus infected Hi-5 cells (a fusion of an N-terminal (His)6 Tag with amino acids 117 to 489 of ACK1) purified by affinity chromatography on a Ni-NTA column. The substrate for the reaction is ACK1 itself (autophosphorylation) and poly-Glutamic acid-Tyrosine (PGT (4:1), Sigma catalog #PO275). The PGT is coated to Nunc 96 well plates at 80 μg/mL overnight at 4° C. The morning after coating, the plates are washed twice, and […] reaction buffer (10 mM Hepes, pH 7.6; 20 mM MgCl2; 75 mM NaCl, 0.125% TWEEN20 (polyoxyethylene sorbitan monolaurate); 1 mM DTT) with 5 μM ATP are added to each well. Test compounds are added in […] DMSO, and the reaction is started by addition of […] kinase in assay buffer. The reaction proceeds for 2 h at room temperature. Next, the plates are washed four times, and the level of tyrosine phosphorylation in a given well is quantified by standard ELISA assay utilizing a phosphotyrosine antibody (PY20, Pierce).

[1] = ACK1-dependent C8 cells, 0.125% FCS, 20 to 24 h

Ki (LCK)	Ki (ACK1)	Compound	IC50 (C8 cells; [1])	IC50 (C8 cells)
< 10 nM	> 100 nM	2-(3-(2,6-dimethylphenylamino)-6-(phenylamino)-1H-indazol-1-yl)-1-(4-methylpiperazin-1-yl)ethanone [Compound 70]	> 100 nM	
< 10 nM	> 100 nM	2-(3-(2,6-dimethylphenylamino)-6-(phenylamino)-1H-indazol-1-yl)-1-(piperazin-1-yl)ethanone [Compound 71]	> 100 nM	
< 10 nM	10 to 100 nM	2-(3-(2,6-dimethylphenylamino)-6-(phenylamino)-1H-indazol-1-yl)acetic acid [Compound 69]	> 100 nM	
< 10 nM	> 100 nM	Cc1cccc(C)c1Nc1nn(CCC(O)CN2CCCC2)c2nc(Nc3ccccc3)ncc12 (centres unmarked) [Compound 45, 4-(3-(2,6-dimethylphenylamino)-6-(phenylamino)-1H-pyrazolo[3,4-d]pyrimidin-1-yl)-1-(pyrrolidin-1-yl)butan-2-ol]	> 100 nM	
< 10 nM	10 to 100 nM	Cc1cccc(C)c1Nc1nn(CCC(C)O)c2nc(Nc3ccccc3)ncc12 (centres unmarked) [Compound 46, 4-(3-(2,6-dimethylphenylamino)-6-(phenylamino)-1H-pyrazolo[3,4-d]pyrimidin-1-yl)butan-2-ol]	> 100 nM	
< 10 nM	> 100 nM	Cc1cccc(C)c1Nc1nn(CCCN2CCCCC2)c2nc(Nc3ccccc3)ncc12 [Compound 48, N^3-(2,6-Dimethyl-phenyl)-N^6-phenyl-1-(3-piperidin-1-yl-propyl)-1H-pyrazolo[3,4-d]pyrimidine-3,6-diamine]	> 100 nM	
< 10 nM	10 to 100 nM	Cc1cccc(C)c1Nc1nn(CCCN2CCCCC2)c2nc(Nc3ccc(N4CCNCC4)cc3)ncc12 [Compound 49, N^3-(2,6-Dimethyl-phenyl)-N^6-(4-piperazin-1-yl-phenyl)-1-(3-piperidin-1-yl-propyl)-1H-pyrazolo[3,4-d]pyrimidine-3,6-diamine]	> 100 nM	
< 10 nM	10 to 100 nM	Cc1cccc(C)c1Nc1nn(CCCN2CCCCC2)c2nc(Nc3ccc(N4CCN(C)CC4)cc3)ncc12 [Compound 50, N^3-(2,6-Dimethyl-phenyl)-N^6-[4-(4-methyl-piperazin-1-yl)-phenyl]-1-(3-piperidin-1-yl-propyl)-1H-pyrazolo[3,4-d]pyrimidine-3,6-diamine]	10 to 100 nM	
< 10 nM	10 to 100 nM	COCCOc1ccc(Nc2ncc3c(Nc4c(C)cccc4C)nn(CCN4CCOCC4)c3n2)cc1 [Compound 52, N^3-(2,6-Dimethyl-phenyl)-N^6-[4-(2-methoxy-ethoxy)-phenyl]-1-(2-morpholin-4-yl-ethyl)-1H-pyrazolo[3,4-d]pyrimidine-3,6-diamine]	> 100 nM	
< 10 nM	10 to 100 nM	Cc1cccc(C)c1Nc1nn(CCN2CCOCC2)c2nc(Nc3ccc(N4CCN(C)CC4)cc3)ncc12 [Compound 53, N^3-(2,6-dimethyl-phenyl)-N^6-[4-(4-methyl-piperazin-1-yl)-phenyl]-1-(2-morpholin-4-yl-ethyl)-1H-pyrazolo[3,4-d]pyrimidine-3,6-diamine]	> 100 nM	
< 10 nM	10 to 100 nM	COCCOc1ccc(Nc2ncc3c(Nc4c(C)cccc4C)nn(CCC(C)(C)OC)c3n2)cc1 [Compound 54, N^3-(2,6-Dimethyl-phenyl)-N-6-[4-(2-methoxy-ethoxy)-phenyl]-1-(3-methoxy-3-methyl-butyl)-1H-pyrazolo[3,4-d]pyrimidine-3,6-diamine]	> 100 nM	
< 10 nM		COC(C)(C)CCn1nc(Nc2c(C)cccc2C)c2cnc(Nc3ccc(N4CCNCC4)cc3)nc21 [Compound 56, N^3-(2,6-Dimethyl-phenyl)-1-(3-methoxy-3-methylbutyl)-N^6-(4-piperazin-1-yl-phenyl)-1H-pyrazolo[3,4-d]pyrimidine-3,6-diamine]	< 10 nM	

Continued, compound first:

Compound	Ki (LCK)	Ki (ACK1)	IC50 (C8 cells; [1])	IC50 (C8 cells)
C=CCCn1nc(Nc2c(C)cccc2C)c2cnc(Nc3ccccc3)nc21 [Compound 33, 1-(but-3-enyl)-N^3-(2,6-dimethylphenyl)-N^6-phenyl-1H-pyrazolo[3,4-d]pyrimidine-3,6-diamine]	< 10 nM	10 to 100 nM	> 100 nM	
Cc1cccc(C)c1Nc1nn(CCC(O)CO)c2nc(Nc3ccccc3)ncc12 (centres unmarked) [Compound 34, 4-(3-(2,6-dimethylphenylamino)-6-(phenylamino)-1H-pyrazolo[3,4-d]pyrimidin-1-yl)butane-1,2-diol]	< 10 nM	10 to 100 nM	10 to 100 nM	
Cc1cccc(C)c1Nc1nn(CCC2COCO2)c2nc(Nc3ccccc3)ncc12 (centres unmarked) [Compound 35, 1-(2-(1,3-dioxolan-4-yl)ethyl)-N^3-(2,6-dimethylphenyl)-N^6-phenyl-1H-pyrazolo[3,4-d]pyrimidine-3,6-diamine]	< 10 nM	10 to 100 nM	> 100 nM	
Cc1cccc(C)c1Nc1nn(CCCO)c2nc(Nc3ccccc3)ncc12 [Compound 37, 3-(3-(2,6-dimethylphenylamino)-6-(phenylamino)-1H-pyrazolo[3,4-d]pyrimidin-1-yl)propan-1-ol]	< 10 nM	10 to 100 nM	> 100 nM	
Cc1cccc(C)c1Nc1nn(CCCN(C)C)c2nc(Nc3ccccc3)ncc12 [Compound 38, 1-(3-(Dimethylamino)propyl)-N^3-(2,6-dimethylphenyl)-N^6-phenyl-1H-pyrazolo[3,4-d]pyrimidine-3,6-diamine]	< 10 nM	10 to 100 nM	10 to 100 nM	
CNCCCn1nc(Nc2c(C)cccc2C)c2cnc(Nc3ccccc3)nc21 [Compound 39, N^3-(2,6-dimethylphenyl)-1-(3-(methylamino)propyl)-N^6-phenyl-1H-pyrazolo[3,4-d]pyrimidine-3,6-diamine]	< 10 nM	10 to 100 nM	> 100 nM	
CCN(CC)CCCn1nc(Nc2c(C)cccc2C)c2cnc(Nc3ccccc3)nc21 [Compound 40, 1-(3-(diethylamino)propyl)-N^3-(2,6-dimethylphenyl)-N^6-phenyl-1H-pyrazolo[3,4-d]pyrimidine-3,6-diamine]	< 10 nM	10 to 100 nM	> 100 nM	
Cc1cccc(C)c1Nc1nn(CCCN2CCCC2)c2nc(Nc3ccccc3)ncc12 [Compound 41, N^3-(2,6-dimethylphenyl)-N^6-phenyl-1-(3-(pyrrolidin-1-yl)propyl)-1H-pyrazolo[3,4-d]pyrimidine-3,6-diamine]	< 10 nM	10 to 100 nM	> 100 nM	
Cc1cccc(C)c1Nc1nn(CCC(O)CN(C)C)c2nc(Nc3ccccc3)ncc12 (centres unmarked) [Compound 43, 1-(dimethylamino)-4-(3-(2,6-dimethylphenylamino)-6-(phenylamino)-1H-pyrazolo[3,4-d]pyrimidin-1-yl)butan-2-ol]	< 10 nM	10 to 100 nM	> 100 nM	
CCN(CC)CC(O)CCn1nc(Nc2c(C)cccc2C)c2cnc(Nc3ccccc3)nc21 (centres unmarked) [Compound 44, 1-(diethylamino)-4-(3-(2,6-dimethylphenylamino)-6-(phenylamino)-1H-pyrazolo[3,4-d]pyrimidin-1-yl)butan-2-ol]	< 10 nM	> 100 nM	> 100 nM	
Cc1cccc(C)c1Nc1nn(CCN2CCOCC2)c2nc(Nc3ccccc3)ncc12 [Compound 51, N^3-(2,6-Dimethyl-phenyl)-1-(2-morpholin-4-yl-ethyl)-N^6-phenyl-1H-pyrazolo[3,4-d]pyrimidine-3,6-diamine]	< 10 nM	10 to 100 nM		> 100 nM
CNc1ncc2c(Nc3c(Cl)cccc3Cl)nn(CCC(C)(C)OC)c2n1 [Compound 83, N^3-(2,6-dichlorophenyl)-1-(3-methoxy-3-methylbutyl)-N^6-methyl-1H-pyrazolo[3,4-d]pyrimidine-3,6-diamine]	< 10 nM	> 100 nM		
CNc1ncc2c(Nc3c(Cl)cccc3Cl)nn(CCC(C)(C)OC)c2n1 [Compound 90, N^3-(2,6-dichlorophenyl)-1-(3-methoxy-3-methylbutyl)-N^5-methyl-1H-pyrazolo[3,4-d]pyrimidine-3,6-diamine]			> 100 nM	
